Reference: patent US9561231B2 (AbbVie Inc., priority 2012, dated 2017)
Where two headings read alike, the source gives them in different places.

Columns and labels:
[1] = target: T1, first (BD1: amino acids K57-E168) bromodomain of BRD4 (Homo sapiens, UniProt O60885); experiment: TR-FRET bromodomain binding assay, BRD4 BD1; settings: Ki calculated from IC50, probe Kd and probe concentration, read-out: TR-FRET Binding Ki: BRD4 (BDI_K57-E168)
T1 construct: His-tagged first (BD1: amino acids K57-E168)
Outline: (§1)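 Displacement of an Alexa647-labelled BET-inhibitor from His-tagged BD1 (K57-E168) or BD2 ([…]) measured by TR-FRET in pH 6.0 sodium phosphate buffer with NaCl, EDTA, Triton X-100 and DTT.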

[2] = target: T2, second (BD2: amino acids E352-E168) bromodomain of BRD4 (Homo sapiens, UniProt O60885); experiment: TR-FRET bromodomain binding assay, BRD4 BD2; settings: Ki calculated from IC50, probe Kd and probe concentration, read-out: TR-FRET Binding Ki: BRD4 (BDII_E352-M457)
T2 construct: protocol
Outline: as §1

[3] = TR-FRET assay protocol (A-G, compound concentration range)
[4] = TR-FRET assay protocol (D, E or G) per compound

| Compound | Ki [1, 3] | Ki [2, 3] | Ki [1, 4] | Ki [2, 4] |
| --- | --- | --- | --- | --- |
| COc1cccc(-c2cc(=O)n(C)nc2-c2ccccc2Oc2ccccc2)c1 [Example 197, 5-(3-methoxyphenyl)-2-methyl-6-(2-phenoxyphenyl)pyridazin-3(2H)-one] | 1060 nM | 725 nM | – | – |
| CC(=O)OCc1ccc(-c2cc(=O)n(C)nc2-c2ccccc2Oc2ccccc2)cc1 [Example 80, 4-[1-methyl-6-oxo-3-(2-phenoxyphenyl)-1,6-dihydropyridazin-4-yl]benzyl acetate] | 708 nM | 439 nM | – | – |
| Cn1nc(-c2ccccc2Oc2ccccc2)c(-c2ccc(C(=O)N3CCCC3)cc2)cc1=O [Example 183, 2-methyl-6-(2-phenoxyphenyl)-5-[4-(pyrrolidin-1-ylcarbonyl)phenyl]pyridazin-3(2H)-one] | 256 nM | 166 nM | – | – |
| COCCCNC(=O)c1ccc(-c2cc(=O)n(C)nc2-c2ccccc2Oc2ccccc2)cc1 [Example 171, N-(3-methoxypropyl)-4-[1-methyl-6-oxo-3-(2-phenoxyphenyl)-1,6-dihydropyridazin-4-yl]benzamide] | 253 nM | 215 nM | – | – |
| Cn1nc(-c2ccccc2Oc2ccccc2)c(-c2cccc(N3CCOCC3)c2)cc1=O [Example 139, 2-methyl-5-[3-(morpholin-4-yl)phenyl]-6-(2-phenoxyphenyl)pyridazin-3(2H)-one] | > 1520 nM | 879 nM | – | – |
| COc1cc(=O)n(C)nc1-c1cccc(NS(C)(=O)=O)c1 [Example 19, N-[3-(4-methoxy-1-methyl-6-oxo-1,6-dihydropyridazin-3-yl)phenyl]methanesulfonamide] | 8850 nM | 8580 nM | – | – |
| CCS(=O)(=O)c1ccc(OCC2CC2)c(-c2cc(NC(C)=O)c(=O)n(C)c2)c1 [Example 361, N-{5-[2-(cyclopropylmethoxy)-5-(ethylsulfonyl)phenyl]-1-methyl-2-oxo-1,2-dihydropyridin-3-yl}acetamide] | 600 nM | 1170 nM | – | – |
| CCOc1cc(=O)n(C)cc1-c1cc(NS(=O)(=O)c2ccc(-c3ccccc3)cc2)ccc1Oc1ccc(F)cc1F [Example 309, N-[4-(2,4-difluorophenoxy)-3-(4-ethoxy-1-methyl-6-oxo-1,6-dihydropyridin-3-yl)phenyl]biphenyl-4-sulfonamide] | 359 nM | 151 nM | – | – |
| CC(C)Oc1ncccc1-c1cc(=O)n(C)nc1-c1ccccc1Oc1ccccc1 [Example 130, 2-methyl-6-(2-phenoxyphenyl)-5-[2-(propan-2-yloxy)pyridin-3-yl]pyridazin-3(2H)-one] | > 13000 nM | 17100 nM | – | – |
| CCOc1cc(=O)n(C)cc1-c1cc(NC(=O)c2cnc(C)cn2)ccc1Oc1ccc(F)cc1F [Example 414, N-[4-(2,4-difluorophenoxy)-3-(4-ethoxy-1-methyl-6-oxo-1,6-dihydropyridin-3-yl)phenyl]-5-methylpyrazine-2-carboxamide] | – | – | 61.4 nM | 38.9 nM |
| Cc1cc(-c2cc(=O)n(C)nc2-c2ccccc2Oc2ccccc2)cnc1N1CCOCC1 [Example 166, 2-methyl-5-[5-methyl-6-(morpholin-4-yl)pyridin-3-yl]-6-(2-phenoxyphenyl)pyridazin-3(2H)-one] | 705 nM | 1010 nM | – | – |
| CCOc1cc(=O)n(C)cc1-c1cc(NS(=O)(=O)CC)ccc1OC1CCN(c2ccc(C(F)(F)F)cc2)CC1 [Example 410, N-[3-(4-ethoxy-1-methyl-6-oxo-1,6-dihydropyridin-3-yl)-4-({1-[4-(trifluoromethyl)phenyl]piperidin-4-yl}oxy)phenyl]ethanesulfonamide] | – | – | 590 nM | 560 nM |
| Cn1nc(-c2ccccc2-c2cccc(C#N)c2)ccc1=O [Example 53, 2′-(1-methyl-6-oxo-1,6-dihydropyridazin-3-yl)biphenyl-3-carbonitrile] | > 11500 nM | > 14300 nM | – | – |
| Cn1nc(-c2ccccc2Oc2ccccc2)c(-c2ccc(OCC(F)(F)F)nc2)cc1=O [Example 140, 2-methyl-6-(2-phenoxyphenyl)-5-[6-(2,2,2-trifluoroethoxy)pyridin-3-yl]pyridazin-3(2H)-one] | > 13000 nM | 8210 nM | – | – |
| CCS(=O)(=O)Nc1cc(-c2ccc(=O)n(C)c2)c(OCC2CC2)cc1C [Example 366, N-[4-(cyclopropylmethoxy)-2-methyl-5-(1-methyl-6-oxo-1,6-dihydropyridin-3-yl)phenyl]ethanesulfonamide] | 629 nM | 570 nM | – | – |
| CCOc1cc(=O)n(C)cc1-c1cc(NS(=O)(=O)c2ccc(Cl)cc2F)ccc1Oc1ccc(F)cc1F [Example 348, 4-chloro-N-[4-(2,4-difluorophenoxy)-3-(4-ethoxy-1-methyl-6-oxo-1,6-dihydropyridin-3-yl)phenyl]-2-fluorobenzenesulfonamide] | 196 nM | 63.1 nM | – | – |
| COc1cc(=O)n(C)nc1-c1ccccc1OCc1ccncc1 [Example 45, 5-methoxy-2-methyl-6-[2-(pyridin-4-ylmethoxy)phenyl]pyridazin-3(2H)-one] | > 5670 nM | > 11100 nM | – | – |
| Cn1cc(-c2cc(NS(C)(=O)=O)ccc2Oc2ccc(F)cc2F)c(Cl)cc1=O [Example 269, N-[3-(4-chloro-1-methyl-6-oxo-1,6-dihydropyridin-3-yl)-4-(2,4-difluorophenoxy)phenyl]methanesulfonamide] | 246 nM | 204 nM | – | – |
| CC(=O)c1cccc(-c2cc(=O)n(C)nc2-c2ccccc2Oc2ccccc2)c1 [Example 201, 5-(3-acetylphenyl)-2-methyl-6-(2-phenoxyphenyl)pyridazin-3(2H)-one] | 2410 nM | 1710 nM | – | – |
| Cn1cc(-c2cc(S(C)(=O)=O)ccc2NCC2CC2)c(OC(C)(C)C(C)(C)O)cc1=O [Example 341, 5-{2-[(cyclopropylmethyl)amino]-5-(methylsulfonyl)phenyl}-4-[(3-hydroxy-2,3-dimethylbutan-2-yl)oxy]-1-methylpyridin-2(1H)-one] | > 2380 nM | > 4080 nM | – | – |
| Cc1cc(-c2ccc(-c3ccc(=O)n(C)c3)c(OCC3CC3)c2)[nH]n1 [Example 312, 5-[2-(cyclopropylmethoxy)-4-(3-methyl-1H-pyrazol-5-yl)phenyl]-1-methylpyridin-2(1H)-one] | 353 nM | 2150 nM | – | – |
| Cn1cc(-c2cc(Nc3ccccn3)ccc2Oc2ccccc2)ccc1=O [Example 254, 1-methyl-5-[2-phenoxy-5-(pyridin-2-ylamino)phenyl]pyridin-2(1H)-one] | 324 nM | 3270 nM | – | – |
| CNS(=O)(=O)c1ccc(-c2cc(=O)n(C)nc2-c2ccccc2Oc2ccccc2)cc1 [Example 159, N-methyl-4-[1-methyl-6-oxo-3-(2-phenoxyphenyl)-1,6-dihydropyridazin-4-yl]benzenesulfonamide] | 5450 nM | 8420 nM | – | – |
| Cn1nc(-c2ccccc2Oc2ccccc2)c(-c2ccc(Cc3ccccc3)cc2)cc1=O [Example 93, 5-(4-benzylphenyl)-2-methyl-6-(2-phenoxyphenyl)pyridazin-3(2H)-one] | > 13000 nM | 3240 nM | – | – |
| CCOc1cc(=O)n(C)cc1-c1cc(NC(=O)c2ccc(C(C)C)cc2)ccc1Oc1ccc(F)cc1F [Example 413, N-[4-(2,4-difluorophenoxy)-3-(4-ethoxy-1-methyl-6-oxo-1,6-dihydropyridin-3-yl)phenyl]-4-(propan-2-yl)benzamide] | – | – | 181 nM | 148 nM |
